These results are taken from patent publication US4973691A, “Etheric derivative of 4(3H)-quinazolinone and a process for preparation thereof” (Spojene Podniky Prozdravotnickou Vyrobu (SPOFA), priority 1988, dated 1990).

Counter-ions that a name gives are not always drawn.

One data set in a line: in vivo. To be noted: po.
A further data set is described as follows: analgesic activity. It is filed as in vivo. To be noted: for ED50: po; for ED50 (analgesic activity): p.o.
The conditions of data set [1]: extensive investigations in recent years; cited from earlier work.
A further data set is described as follows: gastrotoxicity. To be noted: in vivo.
Where [2] appears, read: LD50 (acute (short-time) toxicity).

One may read the LD50 as the dose at which mortality reaches 50%. With `O=c1c2ccccc2ncn1CCOc1ccc(-c2ccc(F)cc2F)cc1`, the median lethal dose (LD50) in “in vivo” (setting [2]) stood at 2000 mg/kg.
A word on the ED50: it is the midpoint of the dose-response relation. A higher ED50 goes with a need for a large dose. Regarding `CC(=O)Oc1ccccc1C(=O)O` [Acetylosalicylic acid], in the data set “in vivo”, the LD50 came to 1070 mg/kg. The ED50 in “analgesic activity” was 190 mg/kg.
Molecule `Cc1c(N(C)C)c(=O)n(-c2ccccc2)n1C` [Aminophenazone, 1-phenyl-2,3-dimethyl-4-dimethylamino-5-pyrazolone] returned an LD50 in the data set “in vivo” of 800 mg/kg. Also, the cancerogenic properties entry in data set [1] was “potentially cancerogenic properties”. Besides, the 50% effect level in “analgesic activity” (ED50) was put at a dose of 104 mg/kg.
For `CC(C)Cc1ccc(C(C)C(=O)O)cc1` (centres unmarked) [Ibuprofen, 2-(4-isobutylphenyl)propionic acid], the ED50 in the data set “analgesic activity” was found to be 179 mg/kg.
On to `CC(=O)Nc1ccc(O)cc1` [Paracetamol, 4-hydroxyacetanilide], for which the LD50 in “in vivo” (setting [2]) is 1090 mg/kg. This molecule also displayed an ED50 in the data set “analgesic activity” of 285 mg/kg.
For the molecule `O=c1c2ccccc2ncn1CCOc1ccc(-c2ccc(F)cc2F)cc1` [Preferred etheric derivative (base), 3-[2-(2',4'-difluoro-4-biphenylyloxy)ethyl]-4(3H)-quinazolinone], the signs of gastrotoxicity entry in the data set “gastrotoxicity” was “free of any signs of gastrotoxicity”. Further, the LD50 in the data set “in vivo” (setting [2]) worked out at 1000 mg/kg. In addition, in “analgesic activity”, the “ED50 (analgesic activity)” value was found to be 71 mg/kg. In “cancerogenity”, the signs of cancerogenity result is “free of any signs of gastrotoxicity and cancerogenity”.
For the molecule `O=c1c2ccccc2ncn1CCOc1ccc(-c2ccc(F)cc2F)cc1` [Preferred etheric derivative (hydrochloride salt)], in the data set “analgesic activity”, the “ED50 (analgesic activity)” value came to 26 mg/kg.
